Laboratory results published in patent publication EP0156785A1, “2-(Aminoalkyl)-acrylophenones, their preparation and their use” (S.A.R.L. GALEPHAR, priority 1984, dated 1985).

Key:
plaquettes = assay: Platelet anti-aggregation activity, aggregation induced by adenosine triphosphate; format: cell-based; details: dose reducing platelet aggregation by 50%; inducer adénosine triphosphate; read-out: D.E.50 (the source's name)
Excerpt: Les propriétés antiagrégantes plaquettaires des acrylophénones de la présente invention ont été mises en évidence au moyen d'adénosine triphosphate choisi comme agent inducteur de l'agrégation plaquettaire.
Les doses efficaces réduisant de 50% l'agrégation des plaquettes (D.E.50) ont été déterminées (Tableau II). Ces résultats montrent que les substances agissent à des doses de l'ordre micromolaire.

[1] = Qualitative solubility of the isolated product; format: physicochemical
Method: 3 g (0,1 M) de trioxyméthylène et 8,65 g (0,05 M) de dichlorhydrate de N-méthylpipérazine sont ajoutés à 6 g d'acétophénone dans 20 ml d'acide acétique. Le mélange est chauffé à reflux pendant 3 h. Le solvant est éliminé et le résidu jaune huileux est dissous dans 50 ml d'éthanol. Après élimimation du solvant, le résidu cristallise dans du méthanol.

rat = assay: Triton WR 1339-induced hyperlipidaemia in the rat (plasma triglycerides and cholesterol); format: in vivo; details: Triton WR 1339 175 mg/kg (IV), plasma 24 h after Triton
Method: Cette propriété a été mise en évidence chez le rat au moyen de la méthode utilisant le Triton WR 1339 comme inducteur d'hyperlipémie.
Quatre heures après l'injection I.V. aux rats de 175 mg de Triton WR 1339 par kg de poids corporel, on leur injecte par voie intrapéritonéale soit du sérum physiologique (témoins) soit la substance à étudier. Les rats sont sacrifiés 24 heures après l'injection du Triton WR 1339 et les plasmas recueillis pour les dosages (résultats : Tableau I) des triglycérides et du cholestérol.

[2] = treatment 4 mg/kg (IP) 4 h after Triton
[3] = treatment 2 mg/kg (IP) 4 h after Triton

Row | IC50 (plaquettes) | solubilité dans l'acétone ([1]; acetone) | solubilité dans l'alcool ([1]; alcohol) | solubilité dans l'eau ([1]; water) | Structure (SMILES) | Diminution(%)sous l'influence du traitement cholestérolémie (rat; [2]) | Diminution(%)sous l'influence du traitement triglycéridémie (rat; [2]) | Diminution(%)sous l'influence du traitement cholestérolémie (rat; [3]) | Diminution(%)sous l'influence du traitement triglycéridémie (rat; [3])
1 | 1320 nM | pratiquement insoluble dans l'acétone | peu soluble dans l'alcool | très soluble dans l'eau | C=C(CN1CCN(C)CC1)C(=O)c1ccccc1 [Exemple 1, Dichlorhydratede 2-(4-méthyl-1-pipérazinylméthyl)acrylophénone] | 57,5% | 47% | – | –
2 | 1940 nM | – | – | – | C=C(CN1CCOCC1)C(=O)c1ccccc1 [chlorhydratede 2-(1-morpholinométhyl)-acrylophénone] | 51,0% | 44,5% | – | –
3 | 1130 nM | – | – | – | C=C(CN(C)C)C(=O)c1ccccc1 [chlorhydratede 2-(N,N-diméthylaminométhyl)-acrylophénone] | – | – | 48% | 36,5%
